Reference: patent US6392032B1, “Heavily fluorinated sugar analogs” (Board of Regents University of Nebraska-Lincoln, priority 1996, dated 2002)

Test: Qualitative solubility in solvents
Format: physicochemical

In the case of `OCC12OC(O)C1C(F)(F)C(F)(F)C2(F)F` (centres unmarked) [Compound 6, 1-Hydroxy-5-(5′-hydroxymethyl)-2,2,3,3,4,4-hexafluorooxane], the Qualitative solubility (in CHCl3 and other solvents of lower polarity) is reported as “insoluble” and the Qualitative solubility (in acetone, EtOAc, ether, and water) is reported as “soluble”.
